Assay [1] deals with COLO 205. Nature of the assay: […] cytotoxic evaluation against colon cancer COLO 205 cell line. The assay is classed as functional, Homo sapiens.
In assay [2] the test system is EKVX. Nature of the assay: […] cytotoxic evaluation against human lung cancer EKVX cell line. It is filed as functional.
Assay [3] deals with HCC 2998. Nature of the assay: […] cytotoxic evaluation against colon cancer HCC2998 cell line. The assay is classed as functional, Homo sapiens.
Assay [4] concerns K562. Nature of the assay: […] cytotoxic evaluation against human leukemic K-562 cell line. It is filed as functional.
Assay [5] relates to LOX IMVI. Nature of the assay: […] cytotoxic evaluation against melanoma LOX IMVI cell line. The assay is classed as functional, Homo sapiens.
In assay [6] the test system is MDA-MB-435. Nature of the assay: […] cytotoxic evaluation against breast cancer MDA-MB-435 cell line. The assay is classed as functional, Homo sapiens.
Assay [7] relates to MDA-N. Nature of the assay: […] cytotoxic evaluation against breast cancer MDA-N cell line. It is filed as functional, Homo sapiens.
The test system of assay [8] is MOLT-4. Nature of the assay: […] cytotoxic evaluation against human leukemic Molt-4 cell line. The assay is classed as functional.
Assay [9] deals with SF-295. Nature of the assay: […] cytotoxic evaluation against CNS cancer SF-295 cell line. The assay is classed as functional, Homo sapiens.
The test system of assay [10] is SK-MEL-5. Nature of the assay: […] cytotoxic evaluation against melanoma SK-MEL-5 cell line. It is filed as functional, Homo sapiens.
In assay [11] the target is T1, Dihydrofolate reductase (Rattus norvegicus, UniProt Q920D2).
T1 sequence (Q920D2 whole entry): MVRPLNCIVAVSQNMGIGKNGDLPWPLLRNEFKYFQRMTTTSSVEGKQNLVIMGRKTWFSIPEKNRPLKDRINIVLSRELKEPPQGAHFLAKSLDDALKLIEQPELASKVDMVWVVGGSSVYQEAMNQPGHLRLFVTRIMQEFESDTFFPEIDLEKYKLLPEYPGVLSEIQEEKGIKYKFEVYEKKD
Description: Inhibition of dihydrofolate reductase from rat liver.

The subject of assay [12] is HCT-116. Nature of the assay: In vitro cytotoxic evaluation against colon cancer HCT116 cell line.
Assay [13] has as its system Toxoplasma gondii. Nature of the assay: Inhibitory activity against cell growth of Toxoplasma gondii measured by the incorporation of [3H]uracil at […].
Assay [14] deals with Pneumocystis carinii. Nature of the assay: Inhibitory activity against cell growth of pneumocystis carinii measured by direct counting of organisms in the culture supernatant fluid at 10 uM.
Assay [15] has as its system Toxoplasma gondii. Nature of the assay: Inhibitory activity against cell growth of Toxoplasma gondii measured by the incorporation of [3H]uracil at 7.8 uM.
Assay [16] relates to Pneumocystis carinii. Nature of the assay: Inhibitory activity against cell growth of pneumocystis carinii measured by direct counting of organisms in the culture supernatant fluid at 50.7 uM.
Assay [17] in a line: Ratio of inhibitory activity against dihydrofolate reductase of rat liver to pneumocystis carinii.
Assay [18] is described as follows: Ratio of inhibitory activity against dihydrofolate reductase of rat liver to Toxoplasma gondii.
For assay [19], the system named is Toxoplasma gondii. Nature of the assay: Inhibitory activity against cell growth of Toxoplasma gondii measured by the incorporation of [3H]uracil at <=10 uM.
Assay [20] concerns Toxoplasma gondii. Nature of the assay: Inhibitory activity against cell growth of Toxoplasma gondii measured by the incorporation of [3H]uracil at 10 uM.

The term GI50 denotes the concentration giving 50% growth inhibition. A high value points to lower sensitivity of the cells. For orientation: IC50 means the concentration at which inhibition is half-maximal. Low readings indicate higher potency, high ones lower potency. What is called inhibition is the change of the read-out against control, counted positive when it falls. Read a high inhibition as a response far below the control. As a reminder, the Inhibition is the drop in the measured response relative to a control, in per cent. High values mean strong suppression, low ones little suppression.

Regarding `Nc1nc(N)c2cc(CNc3ccc4ccccc4c3)cnc2n1`, the GI50 in assay [1] came out at 2400 nM; in assay [2] it was 9000 nM; in assay [3] it was 1100 nM; in assay [4] it was 500 nM; in assay [5] it was 1600 nM; in assay [6], 10000 nM. Moreover, the GI50 in [7] was found to be 4400 nM; in [8], 2000 nM; in assay [9] it was 8200 nM; in assay [10], 3200 nM; in assay [12], 1900 nM. For the same molecule, the IC50 in assay [11] was found to be 4900 nM.

Consider `Nc1nc(N)c2cc(CNc3cc(Cl)ccc3Cl)cnc2n1`, for which the GI50 was 2300 nM in [1]; 6600 nM in assay [2]; 3000 nM in assay [3]; 1600 nM in assay [4]; 710 nM in [5]; 2400 nM in assay [6]. For the same molecule, the GI50 in [7] was 3000 nM; in assay [8], 2000 nM; in assay [9], 4000 nM; in assay [10] it was 2200 nM; in assay [12] it was 2100 nM. The IC50 in assay [11] was found to be 6900 nM. For the same molecule, the inhibition at […] in assay [13] is 50%. Further, 10 µM produced 88% inhibition in assay [14].

As for `Nc1nc(N)c2cc(CNc3cccc4ccccc34)cnc2n1`, in assay [11], the IC50 turned out to be 600 nM. The inhibition at 7.8 µM in assay [15] was found to be 50%. Also, the inhibition at 50.7 µM in assay [16] stood at 50%.

`CN(Cc1cnc2nc(N)nc(N)c2c1)c1ccc(Cl)c(Cl)c1` yielded an IC50 in assay [11] of 180 nM.

On to `COc1ccc(NCc2cnc3nc(N)nc(N)c3c2)cc1OC`, for which, in assay [11], the midpoint of inhibition, the IC50, lay at 560 nM.

Consider `Nc1nc(N)c2cc(CNc3ccc(Cl)c(Cl)c3)cnc2n1`, for which the GI50 came out at 1700 nM in assay [1]; 2400 nM in [2]; 2700 nM in [3]; 330 nM in [4]; 820 nM in assay [5]; 1300 nM in assay [6]. Also, the GI50 in [7] stood at 950 nM; in [8], 1100 nM; in assay [9], 3800 nM; in assay [10], 1100 nM; in [12] it was 620 nM. Besides, the IC50 in [11] was found to be 480 nM.

In the case of `COc1cc(NCc2cnc3nc(N)nc(N)c3c2C)cc(OC)c1OC`, the Ratio turned out to be 0.02 in [17] and 0.3 in [18].

`COc1cccc(NCc2cnc3nc(N)nc(N)c3c2)c1`: in assay [11], inhibition was half-maximal at 790 nM (IC50).

Consider `COc1cc(NCc2ccc3nc(N)nc(N)c3c2C)cc(OC)c1OC`, for which the figures for the Ratio in assay [17] and in [18] were 0.07 and 0.3, respectively.

In [11], `CN(Cc1cnc2nc(N)nc(N)c2c1)c1cc(Cl)c(Cl)c(Cl)c1` returned an IC50 of 270 nM.

For `Nc1nc(N)c2cc(CNc3ccccc3)cnc2n1`, the Inhibition in assay [19] was 0%.

Take `Nc1nc(N)c2cc(CNc3cc(Cl)c(Cl)c(Cl)c3)cnc2n1`: the GI50 in [1] was determined as 310 nM; in [2], 850 nM; in assay [3], 780 nM; in assay [4], 350 nM; in [5] it was 31 nM; in [6], 570 nM. Further, the GI50 turned out to be 500 nM in assay [7]; 710 nM in assay [8]; 740 nM in [9]; 350 nM in assay [10]; 740 nM in assay [12]. This molecule also had an IC50 in [11] of 4600 nM.

In assay [11], `CN(Cc1cnc2nc(N)nc(N)c2c1)c1ccccc1` gave an IC50 of 395000 nM.

On to `COc1ccc(OC)c(CN(C)c2cnc3nc(N)nc(N)c3c2)c1`, for which the values for the Ratio in [17] and in assay [18] were 0.7 and 9, respectively.

For the molecule `COc1ccc(OC)c(NCc2cnc3nc(N)nc(N)c3c2)c1`, the IC50 in [11] was 5000 nM. The molecule further came in with an inhibition at 10 µM in assay [20] of less than 50%.
